In US9890185B2, “Urea derivatives useful as kinase inhibitors” (Respivert Limited, priority 2013, dated 2018):
pIC50: −log10 of the molar value. Where two headings read alike, the source gives them in different places.

Legend:
[1] = biological target: GSK 3α (Homo sapiens (Human), UniProt P49840); assay: GSK 3α enzyme inhibition (FRET, Z-LYTE, Method 2); type: biochemical; conditions: read-out: IC50 Values for Enzyme Inhibition, GSK3α
Experimental: The enzyme inhibitory activities of compounds disclosed herein are determined by FRET using synthetic peptides labelled with both donor and acceptor fluorophores (Z-LYTE, Invitrogen Ltd., Paisley, UK).
The following two assay variants can be used for determination of GSK 3α inhibition.
The inhibitory activities of compounds of the invention against the GSK 3α enzyme isoform (Invitrogen), are evaluated by determining the level of activation/phosphorylation of the target peptide. The GSK3-α protein (500 ng/mL, 2.5 μL) is mixed with the test compound (2.5 μL at either 4 μg/mL, 0.4 μg/mL, 0.04 μg/mL, or 0.004 μg/mL) for 2 hr at RT. The FRET peptide (8 μM, 2.5 μL), which is a phosphorylation target for GSK3α, and ATP (40 μM, 2.5 μL) are then added to the enzyme/compound mixture and the resulting mixture incubated for 1 hr. Development reagent (protease, 5 μL) is added for 1 hr prior to detection in a fluorescence microplate reader (Varioskan® Flash, ThermoFisher Scientific).
In all cases, the site-specific protease cleaves non-phosphorylated peptide only and eliminates the FRET signal. Phosphorylation levels of each reaction are calculated using the ratio of coumarin emission (donor) over fluorescein emission (acceptor), for which high ratios indicate high phosphorylation and low ratios indicate low phosphorylation levels. The percentage inhibition of each reaction is calculated relative to non-inhibited control and the 50% inhibitory concentration (IC50 value) is then calculated from the concentration-response curve.
This method follows the same steps as Method 1 above, but utilises a shorter period of mixing of the test compound (105 minutes instead of 2 hours) with the GSK3-α protein.

[2] = tested on: PBMCs; assay: LPS-induced IL-8 release in PBMC cells (assay b); type: cell-based, human; conditions: LPS-stimulated PBMCs, read-out: IC50 Values for Inhibition of Cytokine Release, PBMCs IL-8
Experimental: Peripheral blood mononuclear cells (PBMCs) from healthy subjects are separated from whole blood using a density gradient (Lymphoprep, Axis-Shield Healthcare). The PBMCs are seeded in 96 well plates and treated with compounds at the desired concentration for 2 hours before addition of 1 ng/mL LPS (Escherichia Coli 0111:B4 from Sigma Aldrich) for 24 hours under normal tissue culture conditions (37° C., 5% CO2). The supernatant is harvested for determination of IL-8 and TNFα concentrations by sandwich ELISA (Duo-set, R&D systems) and read on the fluorescence microplate reader (Varioskan® Flash, ThermoFisher Scientific). The concentration at 50% inhibition (IC50) of IL-8 and TNFα production is calculated from the dose response curve.

Chain of GSK 3α (P49840 whole entry): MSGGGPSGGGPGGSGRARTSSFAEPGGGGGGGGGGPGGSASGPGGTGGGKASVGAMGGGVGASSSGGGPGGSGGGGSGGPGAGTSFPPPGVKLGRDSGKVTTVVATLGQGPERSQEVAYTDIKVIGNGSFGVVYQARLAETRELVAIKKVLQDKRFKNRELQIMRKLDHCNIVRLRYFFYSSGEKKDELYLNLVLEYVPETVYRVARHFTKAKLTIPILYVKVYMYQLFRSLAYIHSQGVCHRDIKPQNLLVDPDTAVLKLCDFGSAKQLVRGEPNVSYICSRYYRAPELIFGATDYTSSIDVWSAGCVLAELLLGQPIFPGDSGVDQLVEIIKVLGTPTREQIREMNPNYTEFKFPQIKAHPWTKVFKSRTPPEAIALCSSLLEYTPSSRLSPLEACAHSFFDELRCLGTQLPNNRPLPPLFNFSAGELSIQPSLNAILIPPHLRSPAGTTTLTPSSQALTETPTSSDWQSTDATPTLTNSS

pIC50 [1]	Compound	pIC50 ([2]; Homo sapiens, PBMC)	pIC50 [2]
6.52	COc1c(NC(=O)Nc2ccc(Oc3ccnc(Nc4ccc5c(c4)NC(=O)C5)n3)c3ccccc23)cc(C(C)(C)C)cc1P(C)(C)=O [15(v), 1-(5-(tert-butyl)-3-(dimethylphosphoryl)-2-methoxyphenyl)-3-(4-((2-((2-oxoindolin-6-yl)amino)pyrimidin-4-yl)oxy)naphthalen-1-yl)urea]	8.55	
5.78	COc1c(NC(=O)Nc2ccc(Oc3ccnc(Nc4ccc5c(c4)OCCO5)n3)c3ccccc23)cc(C(C)(C)C)cc1P(C)(C)=O [15(w), 1-(5-(tert-butyl)-3-(dimethylphosphoryl)-2-methoxyphenyl)-3-(4-((2-((2,3-dihydrobenzo[b][1,4]dioxin-6-yl)amino)pyrimidin-4-yl)oxy)naphthalen-1-yl)urea]	7.98	
6.71	COc1c(NC(=O)Nc2ccc(Oc3ccnc(Nc4ccc5c(c4)CS(=O)(=O)C5)n3)c3ccccc23)cc(C(C)(C)C)cc1P(C)(C)=O [15(y), 1-(5-(tert-butyl)-3-(dimethylphosphoryl)-2-methoxyphenyl)-3-(4-((2-((2,2-dioxido-1,3-dihydrobenzo[c]thiophen-5-yl)amino)pyrimidin-4-yl)oxy)naphthalen-1-yl)urea]	9.05	
5.82	COc1c(NC(=O)Nc2ccc(Oc3ccnc(Nc4cnoc4)n3)c3ccccc23)cc(C(C)(C)C)cc1P(C)(C)=O [15(z), 1-(5-(tert-butyl)-3-(dimethylphosphoryl)-2-methoxyphenyl)-3-(4-((2-(isoxazol-4-ylamino)pyrimidin-4-yl)oxy)naphthalen-1-yl)urea]	7.44	
5.08	COc1c(CN(C)C(C)=O)cc(C(C)(C)C)cc1NC(=O)Nc1ccc(Oc2ccnc(Nc3ccccc3)c2)c2ccccc12 [38(aa), N-(5-(tert-Butyl)-2-methoxy-3-(3-(4-((2-(phenylamino)pyridin-4-yl)oxy)naphthalen-1-yl)ureido)benzyl)-N-methylacetamide]	8.60	
6.08	COc1cc(Nc2cc(Oc3ccc(NC(=O)Nc4cc(C(C)(C)C)cc(CNC(C)=O)c4OC)c4ccccc34)ccn2)cc(C(N)=O)c1 [38(ac), 3-((4-((4-(3-(3-(Acetamidomethyl)-5-(tert-butyl)-2-methoxyphenyl)ureido)naphthalen-1-yl)oxy)pyridin-2-yl)amino)-5-methoxybenzamide]	9.40	
6.10	COc1cc(Nc2cc(Oc3ccc(NC(=O)Nc4cc(C(C)(C)C)cc(CC(N)=O)c4OC)c4ccccc34)ccn2)cc(P(C)(C)=O)c1 [38(ae), 2-(5-(tert-Butyl)-3-(3-(4-((2-((3-(dimethylphosphoryl)-5-methoxyphenyl)amino)pyridin-4-yl)oxy)naphthalen-1-yl)ureido)-2-methoxyphenyl)acetamide]	8.92	

The remaining lines, values behind:

Compound	pIC50 [1]	pIC50 ([2]; Homo sapiens, PBMC)	pIC50 [2]
COc1c(NC(=O)Nc2ccc(Oc3ccnc(NCCn4cccn4)n3)c3ccccc23)cc(C(C)(C)C)cc1P(C)(C)=O [15(ao), 1-(4-((2-((2-(1H-pyrazol-1-yl)ethyl)amino)pyrimidin-4-yl)oxy)naphthalen-1-yl)-3-(5-(tert-butyl)-3-(dimethylphosphoryl)-2-methoxyphenyl)urea]	6.41	8.39	
Cc1c(NC(=O)Nc2ccc(Oc3ccnc(Nc4ccccc4)c3)c3ccccc23)cc(C(C)(C)C)cc1P(C)(C)=O [15(ap), 1-(5-(tert-butyl)-3-(dimethylphosphoryl)-2-methylphenyl)-3-(4-((2-(phenylamino)pyridin-4-yl)oxy)naphthalen-1-yl)urea]	< 4.77	7.32	
COc1c(NC(=O)Nc2ccc(Oc3ccnc(Nc4cnn(C)n4)c3)c3ccccc23)cc(C(C)(C)C)cc1P(C)(C)=O [15(ar), 1-(5-(tert-butyl)-3-(dimethylphosphoryl)-2-methoxyphenyl)-3-(4-((2-((2-methyl-2H-1,2,3-triazol-4-yl)amino)pyridin-4-yl)oxy)naphthalen-1-yl)urea]	6.45	9.10	
COc1ccccc1Nc1nccc(Oc2ccc(NC(=O)Nc3cc(C(C)(C)C)cc(P(C)(C)=O)c3OC)c3ccccc23)n1 [15(f), 1-(5-(tert-butyl)-3-(dimethylphosphoryl)-2-methoxyphenyl)-3-(4-((2-((2-methoxy-phenyl)amino)pyrimidin-4-yl)oxy)naphthalen-1-yl)urea]	5.51		7.58
COc1ccc(Nc2nccc(Oc3ccc(NC(=O)Nc4cc(C(C)(C)C)cc(P(C)(C)=O)c4OC)c4ccccc34)n2)cc1 [15(h), 1-(5-(tert-butyl)-3-(dimethylphosphoryl)-2-methoxyphenyl)-3-(4-((2-((4-methoxy-phenyl)amino)pyrimidin-4-yl)oxy)naphthalen-1-yl)urea]	6.11	8.34	
COc1ccc(Nc2nccc(Oc3ccc(NC(=O)Nc4cc(C(C)(C)C)cc(P(C)(C)=O)c4OC)c4ccccc34)n2)cc1OC [15(i), 1-(5-(tert-butyl)-3-(dimethylphosphoryl)-2-methoxyphenyl)-3-(4-((2-((3,4-dimethoxyphenyl)amino)pyrimidin-4-yl)oxy)naphthalen-1-yl)urea]	6.44	8.82	
COc1c(NC(=O)Nc2ccc(Oc3ccnc(Nc4ccccc4)n3)c3ccccc23)cc(C(C)(C)C)cc1[S+](C)[O-] (centres unmarked) [15(k), 1-(5-(tert-butyl)-2-methoxy-3-(methylsulfinyl)phenyl)-3-(4-((2-(phenylamino)pyrimidin-4-yl)oxy)naphthalen-1-yl)urea]	5.93	8.25	
COc1c(NC(=O)Nc2ccc(Oc3ccnc(Nc4ccccc4)n3)c3ccccc23)cc(C(C)(C)C)cc1S(C)(=O)=O [15(l), 1-(5-(tert-butyl)-2-methoxy-3-(methylsulfonyl)phenyl)-3-(4-((2-(phenylamino)pyrimidin-4-yl)oxy)naphthalen-1-yl)urea]	5.09	7.76	
COc1c(CS(C)(=O)=O)cc(C(C)(C)C)cc1NC(=O)Nc1ccc(Oc2ccnc(Nc3ccccc3)n2)c2ccccc12 [15(n), 1-(5-(tert-butyl)-2-methoxy-3-((methylsulfonyl)methyl)phenyl)-3-(4-((2-(phenylamino)-pyrimidin-4-yl)oxy)naphthalen-1-yl)urea]	5.78	7.87	
COc1c(NC(=O)Nc2ccc(Oc3ccnc(Nc4ccccn4)n3)c3ccccc23)cc(C(C)(C)C)cc1P(C)(C)=O [15(o), 1-(5-(tert-butyl)-3-(dimethylphosphoryl)-2-methoxyphenyl)-3-(4-((2-(pyridin-2-ylamino)pyrimidin-4-yl)oxy)naphthalen-1-yl)urea]	5.24	7.69	
COc1c(NC(=O)Nc2ccc(Oc3ccnc(Nc4ccccc4)n3)c3ccccc23)cc(C(C)(C)C)cc1C(=O)NCCN1CCOCC1 [15(p), 5-(tert-butyl)-2-methoxy-N-(2-morpholinoethyl)-3-(3-(4-((2-(phenylamino)pyrimidin-4-yl)oxy)naphthalen-1-yl)ureido)benzamide]	5.71	8.03	
COc1c(NC(=O)Nc2ccc(Oc3ccnc(Nc4cncnc4)n3)c3ccccc23)cc(C(C)(C)C)cc1P(C)(C)=O [15(r), 1-(5-(tert-butyl)-3-(dimethylphosphoryl)-2-methoxyphenyl)-3-(4-((2-(pyrimidin-5-ylamino)pyrimidin-4-yl)oxy)naphthalen-1-yl)urea]	6.73	8.32	
COc1c(NC(=O)Nc2ccc(Oc3ccnc(Nc4cnn(C)c4)n3)c3ccccc23)cc(C(C)(C)C)cc1P(C)(C)=O [15(s), 1-(5-(tert-butyl)-3-(dimethylphosphoryl)-2-methoxyphenyl)-3-(4-((2-((1-methyl-1H-pyrazol-4-yl)amino)pyrimidin-4-yl)oxy)naphthalen-1-yl)urea]	6.62	8.85	
COc1c(NC(=O)Nc2ccc(Oc3ccnc(Nc4cccc(OS(C)(=O)=O)c4)n3)c3ccccc23)cc(C(C)(C)C)cc1P(C)(C)=O [15(t), 3-((4-((4-(3-(5-(tert-butyl)-3-(dimethylphosphoryl)-2-methoxyphenyl)ureido)-naphthalen-1-yl)oxy)pyrimidin-24)amino)phenyl methanesulfonate]	6.55	9.30	
COc1c(NC(=O)Nc2ccc(Oc3ccnc(Nc4ccccc4)n3)c3ccccc23)cc(C(C)(C)C)cc1C(=O)NCCN1CCCC1 [15(u), 5-(tert-butyl)-2-methoxy-3-(3-(4-((2-(phenylamino)pyrimidin-4-yl)oxy)naphthalen-1-yl)ureido)-N-(2-(pyrrolidin-1-yl)ethyl)benzamide]	5.51	8.10	
